Data on 26 compounds can be found in patent US12630510B2, “EP2 antagonist” (ONO PHARMACEUTICAL CO., LTD., priority 2019, dated 2026).

The experiment concerns the target T1, human EP2 receptor (Homo sapiens, UniProt P43116).
T1 construct: expressed in transfected cells; host or cells: CHO cells
In words: Experiment of measuring EP2 antagonistic activity using cells expressing prostanoid receptor (cAMP). It counts as cell-based. As to conditions: CHO cells expressing human EP2 receptor; PGE2 10 nmol/L; cAMP quantified after 1 hour at room temperature; read-out: EP2_IC50. The method, then:
CHO cells on each of which a human EP2 receptor had been expressed were prepared in accordance with the method by Nishigaki et al, (FEBS Letters, vol. 364, pp. 339-341, 1995) and were then cryopreserved in CELLBANKER2 (Nippon Zenyaku Kogyo Co., Ltd.) at a concentration of 1.5×10^7 cells/mL/vial. The CHO cells thus prepared were used in the experiment. The cells were thawed, and were then suspended in an assay medium (D-PBS containing 1 mmol/L IBMX, 2 μmol/L Diclofenac) at a concentration of 5×10^5 cells/mL. PGE2 alone having a final concentration of 10 nmol/L or a solution (10 μL) containing the PGE2 and a test compound was added to the cell suspension (10 μL) to initiate the reaction. After the reaction was performed at room temperature for 1 hour, the amount of cAMP in the cells was quantified in accordance with the method described in cAMP Gs Dynamic kit (CISBIO).
The antagonistic activity (IC50 value) of a test compound was calculated as a percentage of suppression of the reaction at 10 nM, which was a concentration at which a submaximal cAMP production activity was observed when PGE2 alone was employed. In this manner, an IC50 value was determined.

SMILES strings stand for the structures.

T1 sequence (P43116 whole entry): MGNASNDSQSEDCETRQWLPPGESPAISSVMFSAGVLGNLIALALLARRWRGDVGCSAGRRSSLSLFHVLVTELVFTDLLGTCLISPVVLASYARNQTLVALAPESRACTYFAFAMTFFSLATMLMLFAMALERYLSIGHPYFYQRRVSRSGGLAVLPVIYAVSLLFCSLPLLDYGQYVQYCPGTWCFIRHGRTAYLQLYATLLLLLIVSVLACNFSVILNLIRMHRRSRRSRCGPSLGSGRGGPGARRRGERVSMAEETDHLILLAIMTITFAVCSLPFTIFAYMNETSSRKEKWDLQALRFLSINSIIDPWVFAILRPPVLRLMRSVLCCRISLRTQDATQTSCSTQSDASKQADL

For `CC[C@H](C)n1c(CCCc2ccccc2)ccc1C(=O)Nc1cc([C@@H]2C[C@@H]2C(=O)O)ccc1C(F)(F)F` [Example 5, (1S,2R)-2-{3-[({1-[(2S)-2-Butanyl]-5-(3-phenylpropyl)-1H-pyrrol-2-yl}carbonyl)amino]-4-(trifluoromethyl)phenyl}cyclopropanecarboxylic acid], the IC50 is 2.5 nM.

As to `Cc1cc(OCCc2ccc(F)cc2F)cc(C)c1C(=O)Nc1cc([C@H]2C[C@H]2C(=O)O)ccc1C(F)(F)F` [Example 13, (1R,2S)-2-[3-({4-[2-(2,4-Difluorophenyl)ethoxy]-2,6-dimethylbenzoyl}amino)-4-(trifluoromethyl)phenyl]cyclopropanecarboxylic acid], the IC50 stood at 4.7 nM.

On to `CC[C@H](C)n1c(CCCc2ccccc2)ccc1C(=O)Nc1cc([C@H]2C[C@H]2C(=O)O)ccc1Cl` [Example 7, (1R,2S)-2-{3-[({1-[(2S)-2-Butanyl]-5-(3-phenylpropyl)-1H-pyrrol-2-yl}carbonyl)amino]-4-chlorophenyl}cyclopropanecarboxylic acid], for which the IC50 stood at 0.3 nM.

`Cc1cc(OCCc2ccccc2)cc(C)c1C(=O)Nc1cc([C@H]2CC[C@H]2C(=O)O)ccc1C(F)(F)F` [Example 25, (1R,2S)-2-[3-{[2,6-Dimethyl-4-(2-phenylethoxy)benzoyl]amino}-4-(trifluoromethyl)phenyl]cyclobutanecarboxylic acid]: the IC50 was 2.2 nM.

On to `CCC(C)c1c(C(=O)Nc2cc([C@H]3C[C@H]3C(=O)O)ccc2C(F)(F)F)ccn1CCCc1ccccc1` (stereo partly drawn) [Example 34, (1R,2S)-2-[3-({[2-sec-Butyl-1-(3-phenylpropyl)-1H-pyrrol-3-yl]carbonyl}amino)-4-(trifluoromethyl)phenyl]cyclopropanecarboxylic acid], for which the IC50 is under 0.3 nM.

For the compound `CC(C)n1c(CCCc2ccccc2)ccc1C(=O)Nc1cc([C@@H]2C[C@@H]2C(=O)O)ccc1C(F)(F)F` [Example 3-1, (1S,2R)-2-[3-({[1-Isopropyl-5-(3-phenylpropyl)-1H-pyrrol-2-yl]carbonyl}amino)-4-(trifluoromethyl)phenyl]cyclopropanecarboxylic acid], the IC50 was 2.1 nM.

For `CCC(C)n1c(CCCc2ccccc2)ccc1C(=O)Nc1cc([C@H]2C[C@H]2C(=O)O)ccc1C(F)(F)F` (relative stereo) [Example 1, rel-(1R,2S)-2-[3-({[1-sec-Butyl-5-(3-phenylpropyl)-1H-pyrrole-2-carbonyl]amino)-4-(trifluoromethyl)phenyl]cyclopropanecarboxylic acid], the IC50 was under 0.3 nM.

With `CC[C@H](C)n1c(CCCc2ccccc2)ccc1C(=O)Nc1cc(C)cc([C@@H]2C[C@H]2C(=O)O)c1` (relative stereo) [Example 2-2, rel-(1R,2R)-2-{3-[({1-[(2S)-2-Butanyl]-5-(3-phenylpropyl)-1H-pyrrol-2-yl}carbonyl)amino]-5-methylphenyl}cyclopropanecarboxylic acid], the IC50 was found to be 33 nM.

With `Cc1cc(OCCC2CC2)cc(C)c1C(=O)Nc1cc([C@H]2C[C@H]2C(=O)O)ccc1C(F)(F)F` [Example 20-1, (1R,2S)-2-[3-{[4-(2-Cyclopropylethoxy)-2,6-dimethylbenzoyl]amino}-4-(trifluoromethyl)phenyl]cyclopropanecarboxylic acid], the IC50 is 5 nM.

On to `Cc1cc(OCCc2ccccc2)cc(C)c1C(=O)Nc1cc([C@H]2C[C@@]2(C)C(=O)O)ccc1C(F)(F)F` [Example 26, (1R,2R)-2-[3-{[2,6-Dimethyl-4-(2-phenylethoxy)benzoyl]amino}-4-(trifluoromethyl)phenyl]-1-methylcyclopropanecarboxylic acid], for which the IC50 was found to be 27 nM.

`CC(C)c1cc(OCc2ccccc2)ccc1C(=O)Nc1cc([C@H]2C[C@H]2C(=O)O)ccc1C(F)(F)F` [Example 28, (1R,2S)-2-[3-{[4-(Benzyloxy)-2-isopropylbenzoyl]amino}-4-(trifluoromethyl)phenyl]cyclopropanecarboxylic acid]: the IC50 stood at 4 nM.

For the compound `Cc1cc(OCCc2ccccc2)cc(C)c1C(=O)Nc1cc([C@H]2C[C@H]2C(=O)O)c(Cl)cc1C(F)(F)F` [Example 15, (1R,2S)-2-[2-Chloro-5-{[2,6-dimethyl-4-(2-phenylethoxy)benzoyl]amino}-4-(trifluoromethyl)phenyl]cyclopropanecarboxylic acid], the IC50 was under 0.3 nM.

As for `Cc1cc(OCCc2ccccc2)cc(C)c1C(=O)Nc1cc([C@H]2C[C@H]2C(=O)O)ccc1C(F)(F)F` (racemic) [Example 11, rel-(1R,2S)-2-[3-{[2,6-Dimethyl-4-(2-phenylethoxy)benzoyl]amino}-4-(trifluoromethyl)phenyl]cyclopropanecarboxylic acid], the IC50 worked out at 2.2 nM.

With `Cc1cc(OCCc2ccccc2)cc(C)c1C(=O)Nc1cc(CC(C)C(=O)O)ccc1C(F)(F)F` (centres unmarked) [Example 24-2, 3-[3-f{[2,6-Dimethyl-4-(2-phenylethoxy)benzoyl]amino}-4-(trifluoromethyl)phenyl]-2-methylpropanoic acid], the IC50 came to 12 nM.

For `CC[C@H](C)n1c(CCCc2ccccc2)ccc1C(=O)Nc1cc(C)cc([C@H]2C[C@H]2C(=O)O)c1` (relative stereo) [Example 2-1, rel-(1R,2S)-2-{3-[({1-[(2S)-2-Butanyl]-5-(3-phenylpropyl)-1H-pyrrol-2-yl}carbonyl)amino]-5-methylphenyl}cyclopropanecarboxylic acid], the IC50 amounted to 5.4 nM.

Regarding `Cc1cc(OCCc2ccccc2)cc(C)c1C(=O)Nc1cc([C@@H]2C[C@@H]2C(=O)O)ccc1C(F)(F)F` [Example 19, (1S,2R)-2-[3-{[2,6-Dimethyl-4-(2-phenylethoxy)benzoyl]amino}-4-(trifluoromethyl)phenyl]cyclopropanecarboxylic acid], the IC50 was determined as 12 nM.

On to `CC[C@H](C)n1c(CCOc2cc(F)nc(Cl)c2)ccc1C(=O)Nc1cc([C@H]2C[C@H]2C(=O)O)ccc1C(F)(F)F` [Example 10, (1R,2S)-2-[3-{[(1-[(2S)-2-Butanyl]-5-{2-[(2-chloro-6-fluoro-4-pyridinyl)oxy]ethyl}-1H-pyrrol-2-yl)carbonyl]amino}-4-(trifluoromethyl)phenyl]cyclopropanecarboxylic acid], for which the IC50 is 0.3 nM.

Regarding `Cc1cc(OCCc2ccccc2)cc(C)c1C(=O)Nc1cc(C(C)CC(=O)O)ccc1C(F)(F)F` (centres unmarked) [Example 24-1, 3-[3-{[2,6-Dimethyl-4-(2-phenylethoxy)benzoyl]amino}-4-(trifluoromethyl)phenyl]butanoic acid], the IC50 came to 20 nM.

For `CC[C@H](C)n1c(CCCc2ccccc2)ccc1C(=O)Nc1cc([C@H]2C[C@H]2C(=O)O)ccc1OC` [Example 4, (1R,2S)-2-{3-[({1-[(2S)-2-Butanyl]-5-(3-phenylpropyl)-1H-pyrrol-2-yl}carbonyl)amino]-4-methoxyphenyl}cyclopropanecarboxylic acid], the IC50 was 2.6 nM.

`CC(C)c1c(OCc2ccccc2)cccc1C(=O)Nc1cc([C@H]2C[C@H]2C(=O)O)ccc1C(F)(F)F` [Example 29-1, (1R,2S)-2-[3-{[3-(Benzyloxy)-2-isopropylbenzoyl]amino}-4-(trifluoromethyl)phenyl]cyclopropanecarboxylic acid]: the IC50 turned out to be 11 nM.

For the compound `CC[C@H](C)n1c(CCCc2ccccc2)ccc1C(=O)Nc1cc([C@H]2C[C@H]2C(=O)O)ccc1C(F)(F)F` [Example 6, (1R,2S)-2-{3-[({1-[(2S)-2-Butanyl]-5-(3-phenylpropyl)-1H-pyrrol-2-yl}carbonyl)amino]-4-(trifluoromethyl)phenyl}cyclopropanecarboxylic acid], the IC50 was under 0.3 nM.

As to `Cc1cc(OCCc2ccccc2)cc(C)c1C(=O)Nc1cc(CCC(=O)O)ccc1C(F)(F)F` [Example 24, 3-[3-f{[2,6-Dimethyl-4-(2-phenylethoxy)benzoyl]amino}-4-(trifluoromethyl)phenyl]propanoic acid], the IC50 turned out to be 5.2 nM.

With `Cc1cc(OCCc2cnn(C)c2)cc(C)c1C(=O)Nc1cc([C@H]2C[C@H]2C(=O)O)ccc1C(F)(F)F` [Example 20, (1R,2S)-2-[3-({2,6-Dimethyl-4-[2-(1-methyl-1H-pyrazol-4-yl)ethoxy]benzoyl}amino)-4-(trifluoromethyl)phenyl]cyclopropanecarboxylic acid], the IC50 is 28 nM.

As for `CC(C)n1c(CCCc2ccccc2)ccc1C(=O)Nc1cc([C@@H]2C[C@H]2C(=O)O)ccc1C(F)(F)F` [Example 3-2, (1R,2R)-2-[3-({[1-Isopropyl-5-(3-phenylpropyl)-1H-pyrrol-2-yl]carbonyl}amino)-4-(trifluoromethyl)phenyl]cyclopropanecarboxylic acid], the IC50 was 77 nM.

In the case of `CC(C)c1c(C(=O)Nc2cc([C@H]3C[C@H]3C(=O)O)ccc2C(F)(F)F)cnn1CCCc1ccccc1` [Example 31-2, (1R,2S)-2-[3-({[5-Isopropyl-1-(3-phenylpropyl)-1H-pyrazol-4-yl]carbonyl}amino)-4-(trifluoromethyl)phenyl]cyclopropanecarboxylic acid], the IC50 was determined as 1.3 nM.

Regarding `Cc1cc(Oc2cncc(Cl)n2)cc(C)c1C(=O)Nc1cc([C@H]2C[C@H]2C(=O)O)ccc1C(F)(F)F` [Example 21, (1R,2S)-2-[3-({4-[(6-Chloro-2-pyrazinyl)oxy]-2,6-dimethylbenzoyl}amino)-4-(trifluoromethyl)phenyl]cyclopropanecarboxylic acid], the IC50 came to 8.1 nM.
